Test results as given in patent EP0227941A1, “1-Phenyl-4-(1H)-pyridazinimines, their preparation and use” (BASF Aktiengesellschaft, priority 1985, dated 1987).
pIC50: −log10 of the molar value. Where a name gives a salt, the structure may show the parent alone. Read-outs that look alike come from different tables or passages of the source.

Experiments:
Assay type in all cases: biochemical, Ratten
[1] = biological target: T1, Synaptosomen-Aufnahme von Noradrenalin (Rattus norvegicus, UniProt Q63380); assay: Inhibition of noradrenaline uptake in rat brain synaptosomes (hippocampus, 3H-noradrenaline); settings: for Hemmung der Synaptosomen-Aufnahme von Noradrenalin r.W. (relative Wirksamkeit): Quotient IC50 Referenzverbindung / IC50 Beispielverbindung
T1 construct: Durch differentielle Zentrifugation wurden Synaptosomen erhalten; from tissue; host or cells: rat brain hippocampus synaptosomes
Source text: (§1) Hemmung der Neurotransmitter-Aufnahme in Rattenhirn-Synaptosomen
(§2) Hippocampus und Cortex aus Rattenhirn wurden präpariert und in 0,32 M Sucrose-Lösung homogenisiert. Durch differentielle Zentrifugation wurden Synaptosomen erhalten, die in Pufferlösung suspendiert wurden. Die Synaptosomen sind in der Lage, aus dem umgebenden Medium zugefügte Neurotransmittersubstanzen (z.B. Noradrenalin oder Serotonin) aktiv aufzunehmen. Dieser Vorgang ist durch uptake-Hemmer konzentrationsabhängig antagonisierbar. Die Synaptosomen wurden mit den Testsubstanzen in verschiedenen Konzentrationen versetzt und anschließend mit ³H-Noradrenalin (Hippocampus) bzw. ³H-Serotonin (Cortex) bei 37°C inkubiert. Die Substratkonzentration betrug ca. 10 nM. Nach Stoppen der Aufnahme durch Verdünnen mit eisgekühlter Pufferlösung wurden die Synaptosomen abzentrifugiert und die ³H-Aktivität im Sediment gemessen. Der Blindwert wird durch Inkubation bei 0°C ermittelt.
(§3) Aus den verschiedenen Inhibitor-Konzentrationen gegen Kontrolle ermittelten Hemmwerten wurde durch lineare Regression nach logit-log-Transformation die mittlere Hemmkonzentration IC₅₀ berechnet.

[2] = biological target: T2, Synaptosomen-Aufnahme von Serotonin (Rattus norvegicus, UniProt P31652); assay: Inhibition of serotonin uptake in rat brain synaptosomes (cortex, 3H-serotonin); settings: for Hemmung der Synaptosomen-Aufnahme von Serotonin r.W. (relative Wirksamkeit): Quotient IC50 Referenzverbindung / IC50 Beispielverbindung
T2 construct: Durch differentielle Zentrifugation wurden Synaptosomen erhalten; from tissue; host or cells: rat brain cortex synaptosomes
Source text: as §1, §2, §3

Monoaminoxidase Typ A = biological target: T3, Monoaminoxidase Typ A (Rattus norvegicus, UniProt P21396); assay: Inhibition of monoamine oxidase type A in rat brain homogenate (14C-tryptamine); settings: for Hemmung der Monoaminoxidase Typ A r.W. (relative Wirksamkeit): Quotient IC50 Referenzverbindung / IC50 Beispielverbindung
T3 construct: Die Bestimmung der Monoaminoxidase erfolgte in verdünntem Rattenhirnhomogenat; from tissue; host or cells: rat brain homogenate
T3 sequence (P21396 1-526): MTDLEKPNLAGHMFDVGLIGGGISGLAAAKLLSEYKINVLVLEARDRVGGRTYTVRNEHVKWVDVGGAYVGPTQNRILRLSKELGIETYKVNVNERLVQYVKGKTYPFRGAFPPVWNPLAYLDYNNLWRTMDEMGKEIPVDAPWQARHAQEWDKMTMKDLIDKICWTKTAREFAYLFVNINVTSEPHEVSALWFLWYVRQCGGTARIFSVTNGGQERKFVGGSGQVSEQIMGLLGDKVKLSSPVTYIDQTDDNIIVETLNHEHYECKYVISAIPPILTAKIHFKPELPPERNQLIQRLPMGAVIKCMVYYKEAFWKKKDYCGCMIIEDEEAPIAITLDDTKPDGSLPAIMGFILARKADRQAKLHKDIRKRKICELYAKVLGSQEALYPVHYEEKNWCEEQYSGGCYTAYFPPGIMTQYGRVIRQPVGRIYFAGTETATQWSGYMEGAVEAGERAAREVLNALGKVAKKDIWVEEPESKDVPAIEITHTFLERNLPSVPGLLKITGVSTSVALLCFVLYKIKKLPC
Procedure: (§4) Hemmung der Monoaminoxidase
(§5) Die Bestimmung der Monoaminoxidase erfolgte in verdünntem Rattenhirnhomogenat dem 1. unterschiedliche Konzentrationen der zu prüfenden Testsubstanzen und 2. für die Bestimmung der Monoaminoxidase Typ A ¹⁴C-Tryptamin in einer Konzentration von 0,4 µmol, zur Bestimmung der Monoaminoxidase Typ B ¹⁴C-Phenylethylamin in einer Konzentration von 0,25 µmol zugesetzt wurde. Dieser Ansatz wurde 20 Minuten bei 37°C inkubiert. Die Reaktion wird durch 0,1 n HCl gestoppt und die Reaktionsprodukte nach Extraktion in Toluol-Szintillator (PPO + POPOP in Toluol) bestimmt. Der Blindwert wird in analogen Ansätzen mit einer Inkubationszeit von t = 0 Minuten bestimmt.
(§6) Aus den bei den verschiedenen Inhibitorkonzentrationen gegen die Kontrolle ermittelten Hemmwerten wurde durch lineare Regression nach logit-log-Transformation die mittlere Hemmkonzentration (IC₅₀) berechnet.

Monoaminoxidase Typ B = biological target: T4, Monoaminoxidase Typ B (Rattus norvegicus, UniProt P19643); assay: Inhibition of monoamine oxidase type B in rat brain homogenate (14C-phenylethylamine); settings: for Hemmung der Monoaminoxidase Typ B r.W. (relative Wirksamkeit): Quotient IC50 Referenzverbindung / IC50 Beispielverbindung
T4 construct: Die Bestimmung der Monoaminoxidase erfolgte in verdünntem Rattenhirnhomogenat; from tissue; host or cells: rat brain homogenate
T4 sequence (P19643 1-520): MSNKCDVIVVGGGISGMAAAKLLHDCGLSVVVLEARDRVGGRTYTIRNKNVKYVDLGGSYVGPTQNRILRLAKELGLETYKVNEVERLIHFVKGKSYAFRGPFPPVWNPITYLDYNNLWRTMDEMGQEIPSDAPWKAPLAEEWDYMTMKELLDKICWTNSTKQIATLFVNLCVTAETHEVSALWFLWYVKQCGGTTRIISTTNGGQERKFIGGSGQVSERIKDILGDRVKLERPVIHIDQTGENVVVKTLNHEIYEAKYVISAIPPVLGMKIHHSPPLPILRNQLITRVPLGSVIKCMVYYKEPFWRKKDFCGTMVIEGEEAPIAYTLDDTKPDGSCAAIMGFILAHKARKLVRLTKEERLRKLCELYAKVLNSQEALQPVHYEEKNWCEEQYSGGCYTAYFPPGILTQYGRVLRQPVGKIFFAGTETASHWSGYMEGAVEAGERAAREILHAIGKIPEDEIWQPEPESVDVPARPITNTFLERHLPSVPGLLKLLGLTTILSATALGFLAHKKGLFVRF
Procedure: as §4, §5, §6

[3] = rat hippocampus synaptosomes, 3H-Noradrenalin ca. 10 nM, 37°C, read-out: Hemmung der Synaptosomen-Aufnahme von Noradrenalin IC50
[4] = rat cortex synaptosomes, 3H-Serotonin ca. 10 nM, 37°C, read-out: Hemmung der Synaptosomen-Aufnahme von Serotonin IC50
[5] = rat brain homogenate, 14C-Tryptamin, 20 min 37°C, read-out: Hemmung der Monoaminoxidase Typ A IC50
[6] = rat brain homogenate, 14C-Phenylethylamin, 20 min 37°C, read-out: Hemmung der Monoaminoxidase Typ B IC50

T1 sequence (Q63380 1-617): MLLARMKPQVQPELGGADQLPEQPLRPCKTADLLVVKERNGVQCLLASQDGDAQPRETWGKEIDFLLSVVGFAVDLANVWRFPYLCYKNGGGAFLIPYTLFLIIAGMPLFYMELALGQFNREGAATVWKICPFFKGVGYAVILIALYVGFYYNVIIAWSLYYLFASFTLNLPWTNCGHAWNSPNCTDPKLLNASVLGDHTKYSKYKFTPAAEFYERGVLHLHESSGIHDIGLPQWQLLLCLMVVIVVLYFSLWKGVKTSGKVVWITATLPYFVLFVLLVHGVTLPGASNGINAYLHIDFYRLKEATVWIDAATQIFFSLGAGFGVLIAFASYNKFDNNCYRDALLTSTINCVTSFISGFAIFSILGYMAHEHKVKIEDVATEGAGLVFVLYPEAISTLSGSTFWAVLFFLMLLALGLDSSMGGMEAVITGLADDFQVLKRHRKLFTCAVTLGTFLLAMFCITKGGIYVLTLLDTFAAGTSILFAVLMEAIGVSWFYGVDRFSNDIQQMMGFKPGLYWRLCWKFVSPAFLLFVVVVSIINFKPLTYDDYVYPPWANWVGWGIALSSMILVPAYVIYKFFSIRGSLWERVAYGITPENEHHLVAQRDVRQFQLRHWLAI
T2 sequence (P31652 whole entry): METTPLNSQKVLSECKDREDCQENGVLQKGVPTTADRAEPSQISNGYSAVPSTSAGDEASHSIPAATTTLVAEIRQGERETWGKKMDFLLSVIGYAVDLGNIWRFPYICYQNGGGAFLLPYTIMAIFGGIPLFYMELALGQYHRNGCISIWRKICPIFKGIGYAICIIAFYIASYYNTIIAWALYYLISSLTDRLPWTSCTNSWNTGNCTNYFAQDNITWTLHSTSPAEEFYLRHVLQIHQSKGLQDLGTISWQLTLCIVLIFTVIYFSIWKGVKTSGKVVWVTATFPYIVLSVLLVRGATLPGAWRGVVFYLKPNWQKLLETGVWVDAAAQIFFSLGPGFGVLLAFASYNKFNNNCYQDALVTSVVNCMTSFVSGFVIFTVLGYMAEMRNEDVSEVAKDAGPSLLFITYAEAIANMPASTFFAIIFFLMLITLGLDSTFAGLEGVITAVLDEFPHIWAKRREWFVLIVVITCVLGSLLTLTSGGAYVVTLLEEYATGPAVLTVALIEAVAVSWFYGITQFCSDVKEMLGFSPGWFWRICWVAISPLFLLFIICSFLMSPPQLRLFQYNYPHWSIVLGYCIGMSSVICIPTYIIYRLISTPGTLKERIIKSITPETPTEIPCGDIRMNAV

Row | SMILES | Hemmung der Synaptosomen-Aufnahme von Noradrenalin r.W. (relative Wirksamkeit) [1] | pIC50 [1, 3] | Hemmung der Synaptosomen-Aufnahme von Serotonin r.W. (relative Wirksamkeit) [2] | pIC50 [2, 4] | Hemmung der Monoaminoxidase Typ A r.W. (relative Wirksamkeit) (Monoaminoxidase Typ A) | pIC50 (Monoaminoxidase Typ A; [5]) | Hemmung der Monoaminoxidase Typ B r.W. (relative Wirksamkeit) (Monoaminoxidase Typ B) | pIC50 (Monoaminoxidase Typ B; [6]) | pIC50 [1] | pIC50 [2] | pIC50 (Monoaminoxidase Typ A) | pIC50 (Monoaminoxidase Typ B)
1 | N=c1ccn(-c2ccc(Cl)c(Br)c2)nc1 [Beispiel 16, 1-(3-Brom-4-chlorphenyl)-4-(1H)-pyridazinimin-hydrochlorid] | 2.5 | 7.89 | 109 | 8.17 | 2.0 | 5.67 | 18.1 | 5.57 |  |  |  | 
2 | N=c1ccn(-c2ccc(Cl)c(Cl)c2)nc1 [Beispiel 1, 1-(3,4-Dichlorphenyl)-4-(1H)-pyridazinimin-hydrochlorid] | 5.3 | 8.24 | 112 | 8.19 | 2.2 | 5.72 | 18.8 | 5.59 |  |  |  | 
3 | Br.Cc1ccc(-n2ccc(=N)cn2)cc1 [Beispiel 5, 1-(4-Methylphenyl)-4-(1H)-pyridazinimin-hydrobromid] | 0.7 |  | 1.4 |  | 2.8 |  | 4.9 |  | 7.34 | 6.62 | 5.82 | 5.00
4 | Cc1cc(-n2ccc(=N)cn2)ccc1Br [Beispiel 46, 1-(3-Methyl-4-bromphenyl)-4-(1H)-pyridazinimin-sulfat] | 3.1 | 8.00 | 103 | 8.15 | 4.2 | 6.00 | 12.2 | 5.40 |  |  |  | 
5 | Cc1ccc(-n2ccc(=N)cn2)cc1Cl [Beispiel 42, 1-(3-Chlor-4-methylphenyl)-4-(1H)-pyridazinimin-hydrochlorid] | 2.1 | 7.82 | 36.5 | 7.70 | 5.6 | 6.12 | 24.5 | 5.70 |  |  |  | 
6 | COc1cc(-n2ccc(=N)cn2)ccc1C.Cl [Beispiel 10, 1-(3-Methoxy-4-methylphenyl)-4-(1H)-pyridazinimin-hydrochlorid] | 0.3 |  | 15.2 |  | 3.4 |  | 4.9 |  | 6.96 | 7.32 | 5.92 | 5.00
7 | N=c1ccn(-c2ccc(C(F)(F)F)c(Cl)c2)nc1 [Beispiel 12, 1-(3-Chlor-4-trifluormethylphenyl)-4-(1H)-pyridazinimin-hydrochlorid] | 0.4 | 7.08 | 83.9 | 8.06 | 2.3 | 5.74 | 71 | 6.15 |  |  |  | 
8 | N=c1ccn(-c2ccc(Br)c(Cl)c2)nc1 [Beispiel 17, 1-(3-Chlor-4-bromphenyl)-4-(1H)-pyridazinimin-hydrochlorid] | 6.5 | 8.32 | 184 | 8.41 | 2.7 | 5.82 | 19.0 | 5.59 |  |  |  | 
9 | N=c1ccn(-c2ccc(Br)cc2)nc1 [Beispiel 8, 1-(4-Bromphenyl)-4-(1H)-pyridazinimin-hydrochlorid] | 0.9 | 7.47 | 56.2 | 7.89 | 1.4 | 5.54 | 4.9 | 5.00 |  |  |  | 
10 | N=c1ccn(-c2ccc(C(F)(F)F)cc2)nc1 [Beispiel 32, 1-(4-Trifluormethylphenyl)-4-(1H)-pyridazinimin-hydrobromid] | 0.1 | 6.15 | 16.6 | 7.36 | 0.6 | 5.15 | 12.2 | 5.40 |  |  |  | 
11 | Cc1cc(-n2ccc(=N)cn2)ccc1Cl [Beispiel 45, 1-(3-Methyl-4-chlorphenyl)-4-(1H)-pyridazinimin-sulfat] | 1.8 | 7.77 | 40.6 | 7.74 | 4.2 | 6.00 | 9.8 | 5.30 |  |  |  | 
12 | CCc1ccc(-n2ccc(=N)cn2)cc1.Cl [Beispiel 7, 1-(4-Ethylphenyl)-4-(1H)-pyridazinimin-hydrochlorid] | 0.1 |  | 12.6 |  | 6.6 |  | 32.7 |  | 6.30 | 7.24 | 6.19 | 5.82
13 | Cc1ccc(-n2ccc(=N)cn2)cc1F [Beispiel 11, 1-(3-Fluor-4-methylphenyl)-4-(1H)-pyridazinimin-hydrochlorid] | 1.2 | 7.59 | 7.3 | 7.00 | 2.0 | 5.68 | 9.6 | 5.29 |  |  |  | 
14 | N=c1ccn(-c2ccc(Br)c(Br)c2)nc1 [Beispiel 18, 1-(3,4-Dibromphenyl)-4-(1H)-pyridazinimin-hydrochlorid] | 6.1 | 8.29 | 261 | 8.55 | 4.8 | 6.06 | 25.8 | 5.72 |  |  |  | 
